Values after ≈ are worked out from the molar mass of the structure shown.
Legend:
[1] = human liver microsome (HLM) metabolic stability assay; assay type: in vitro ADME; conditions: human liver microsomes; % hepatic blood flow calculated from t1/2
Method: The 5 time point, high-throughput human liver microsome (HLM) metabolic stability assay is designed to determine in vitro compound metabolism. Compounds are incubated with HLMs at a concentration of 1 uM, at 37° C., for a total of 60 min. The percent of compound remaining at 5, 15, 30, and 60 min is used to calculate the t½ (min), CLint (mL/min/kg), CLh (mL/min/kg), and % Qh. The assay is based on a 96-well format and can accommodate up to 92 compounds per plate (n=1).
Using the 96-well multi-channel head, the Biomek FX, equipped with a Peltier heating block/shaker, is programmed to accomplish the following steps: • 1. Pipette 175 uL of 1.15 mg/mL microsomes into each of the 96 conical inserts (Analytical Sales and Products, catalog number 96PL05) that fit into the plate of the Peltier heating block/shaker (the incubation plate) • 2. Add 5 uL of compounds from the assay plate to the microsomes and shake the mixture at 600 rpm at 42.1° C. for 10 min (a setting of 42.1° C. on the Peltier is required for the samples to incubate at 37° C.) • 3. After 10 min, prompt the user to add the NADPH plate to the deck and add 20 uL from the NADPH plate to the incubation plate to start the reaction • 4. Add 215 uL of 100%, cold acetonitrile containing an internal standard(s) to a 0 minute, 5 minute, 15 minute, 30 minute, and 60 minute “quench” plate • 5. At 0 min, 5 min, 15 min, 30 min, and 60 min into the incubation, aspirate 12 uL from the incubation mixture and add it to the quench solution to stop the reaction • 6. Add 185 uL HPLC grade water to each well of the 0, 5, 15, 30 and 60 minute quench plates to dilute compounds to the appropriate concentration for the mass spectrometer
After all time points are collected, the quench plates are sealed with 96-well pierceable plate mats or heat sealing foil and centrifuged at 3000 rpm for 15 min to pellet the microsomes.
The plates are analyzed using LC/MS/MS with electron spray ionization (ESI) and the previously determined MRM transitions. The LC method includes the following parameters:
Using an Excel template in Activitybase, the peak areas corresponding to 5, 15, 30 and 60 min are compared to the peak area at 0 min to calculate the percent of remaining compound using the following equation: Percent compound remaining=(AUC at Time t min/AUC at Time 0 min)×100 where t=0, 5, 15, 30 or 60 min.
Time (min) is plotted against the natural logarithm (Ln) of the percent compound remaining to determine the slope. The slope is used to calculate t½ (min) using the equation, t½=0.693/slope.
Preferred compounds have % Qh values of less than 24.

[2] = Assessment of solubility (McIlvaine buffers, 24 h shake, UPLC-UV); assay type: physicochemical; conditions: kinetic from dmso stock
Method: Solubility is measured by the following method.
100 uL, 10 mM DMSO stock solution of each compound is prepared in a 96 well plate format. The experiment is done in single determination at 3 pH values (2.2, 4.5 and 6.8). For each pH and one reference, 40 uL of each compound is needed.
McIlvaine pH 2.2: To 2.076 g citric acid monohydrate and 0.043 g Na2HPO4×2H2O add 100 ml deionized water
McIlvaine pH 4.5: To 1.166 g citric acid monohydrate and 1.585 g Na2HPO4×2H2O add 100 ml deionized water
McIlvaine pH 6.8: To 0.476 g citric acid monohydrate and 2.753 g Na2HPO4×2H2O add 100 ml deionized water
With a suitable liquid handling device (Multipette® or a liquid handler) 390 uL of each buffer solution and 10 uL of compound is added to each well of a 96 deep well plate. The plates are covered firmly and shaken for 24 h on an over head shaker (at 54 RPM) at room temperature. The DMSO content in the final buffer is 2.5% v/v.
After 24 h the plates are centrifuged to remove droplets on the lid before opening (for ˜5 min at 2500 RPM).
The filtration is done under vacuum with Millipore 96 well filter plate. Filtrate is collected in a deep well plate and transferred to a suitable plate for UPLC analysis.
The reference plate is prepared by adding 10 uL of compound to 390 uL of 50:50 acetonitrile/water in a 96 deep well plate and transferred to a suitable plate for UPLC analysis. Wells are checked visually for precipitation, any presence noted under comments in reported results.
The samples are measured with UPLC-UV using the chromatographic method described below.
Waters Empower®2 software is used for generating Sample Sets (according to the plate layout), Sample Set Methods and Instrument Methods.
One Sample Set comprises the methods for three 96 well plates (one reference plate and two sample plates, and includes one Sample Set Method and one Instrument Method).
3. Data Processing and Analysis
The UV chromatograms collected at 254 nm are integrated and processed.
It is assumed that the compound is completely dissolved in the reference solution (50:50 acetonitrile/water)

HLM (% Qh) [1] [% Qh]	solubility at 24 h ([2]; pH 2.2, aqueous buffer) [µg/mL]	solubility at 24 h ([2]; pH 4.5, aqueous buffer) [µg/mL]	solubility at 24 h ([2]; pH 6.8, aqueous buffer) [µg/mL]	SMILES
31	110 (≈ 193 µM)	80 (≈ 141 µM)	85 (≈ 149 µM)	CCOc1c(C(=O)O)cnn1-c1cccc(-c2cccc(C)c2OCc2ccc3c(c2C)CCN(C2COC2)CC3)n1 [Compound 175]
<24	120 (≈ 188 µM)	58 (≈ 91.1 µM)	39 (≈ 61.3 µM)	CCOc1c(C(=O)O)cnn1-c1cccc(-c2cccc(C)c2OCc2ccc3c(c2C(F)(F)F)CCN(C2CCOCC2)C3)n1 [Compound 165]
<24	110 (≈ 187 µM)	90 (≈ 153 µM)	88 (≈ 150 µM)	CCOc1c(C(=O)O)cnn1-c1cccc(-c2cccc(C)c2OCc2ccc3c(c2C)CCN(CCOCCO)C3)n1 [Compound 168]
<24	140 (≈ 246 µM)	120 (≈ 211 µM)	120 (≈ 211 µM)	COc1c(C(=O)O)cnn1-c1cccc(-c2cccc(C)c2OCc2ccc3c(c2C)CCN([C@@H]2CCCOC2)C3)n1 [Compound 140]
25	96 (≈ 158 µM)	78 (≈ 128 µM)	81 (≈ 133 µM)	COc1c(C(=O)O)cnn1-c1cccc(-c2cccc(C)c2OCc2ccc3c(c2)CCN([C@H]2CC[C@@]4(CCCO4)CC2)C3)n1 [Compound 103]
<24	110 (≈ 193 µM)	90 (≈ 158 µM)	93 (≈ 164 µM)	COc1c(C(=O)O)cnn1-c1cccc(-c2cccc(C)c2OCc2cc3c(cc2C)CN(C2CCOCC2)CC3)n1 [Compound 121]
<24	110 (≈ 180 µM)	98 (≈ 160 µM)	85 (≈ 139 µM)	COCCOc1c(C(=O)O)cnn1-c1cccc(-c2cccc(C)c2OCc2ccc3c(c2C)CCN(C2CCOCC2)C3)n1 [Compound 151]
<24	96 (≈ 169 µM)	74 (≈ 130 µM)	78 (≈ 137 µM)	CCOc1c(C(=O)O)cnn1-c1cccc(-c2cccc(C)c2OCc2ccc3c(c2C)CCN([C@@H]2CCOC2)C3)n1 [Compound 126]
29	110 (≈ 180 µM)	97 (≈ 159 µM)	100 (≈ 164 µM)	CC[C@H](C)Oc1c(C(=O)O)cnn1-c1cccc(-c2cccc(C)c2OCc2ccc3c(c2C)CCN(C2CCCOC2)C3)n1 (stereo partly shown) [Compound 135]
<24	120 (≈ 206 µM)	99 (≈ 170 µM)	100 (≈ 172 µM)	CCOc1c(C(=O)O)cnn1-c1cccc(-c2cccc(C)c2OCc2ccc3c(c2C)CCN(C2CCOCC2)C3)n1 [Compound 114]
25	130 (≈ 228 µM)	100 (≈ 175 µM)	110 (≈ 193 µM)	COc1c(C(=O)O)cnn1-c1cccc(-c2cccc(C)c2OCc2ccc3c(c2)OCCN(C2CCOCC2)C3)n1 [Compound 130]
<24	43 (≈ 70.2 µM)	92 (≈ 150 µM)	93 (≈ 152 µM)	CCOc1c(C(=O)O)cnn1-c1cccc(-c2cccc(C)c2OCc2ccc3c(c2C)CCN(C[C@H]2COC(C)(C)O2)C3)n1 [Compound 179]
<24	130 (≈ 229 µM)	110 (≈ 193 µM)	110 (≈ 193 µM)	COc1c(C(=O)O)cnn1-c1cccc(-c2cccc(C)c2OCc2ccc3c(c2C)CCN([C@H]2CCCOC2)C3)n1 [Compound 141]
<24	100 (≈ 195 µM)	84 (≈ 164 µM)	87 (≈ 170 µM)	COc1c(C(=O)O)cnn1-c1cccc(-c2cccc(C)c2OCc2ccc3c(c2)CCN(C(C)C)C3)n1 [Compound 13]
<24	100 (≈ 176 µM)	8.6 (≈ 15.1 µM)	44 (≈ 77.4 µM)	COc1c(C(=O)O)cnn1-c1cccc(-c2cc(C)ccc2OCc2ccc3c(c2C)CCN(C2CCOCC2)C3)n1 [Compound 124]
47	23 (≈ 41.6 µM)	< 0.1	80 (≈ 145 µM)	COc1c(C(=O)O)cnn1-c1cccc(-c2cccc(C)c2OCc2ccc3c(c2)CCN(CC(F)(F)F)C3)n1 [Compound 11, 5-methoxy-1-(6-{3-methyl-2-[2-(2,2,2-trifluoro-ethyl)-1,2,3,4-tetrahydro-isoquinolin-6-ylmethoxy]-phenyl}-pyridin-2-yl)-1H-pyrazole-4-carboxylic acid]
<24	120 (≈ 206 µM)	100 (≈ 172 µM)	97 (≈ 166 µM)	CCOc1c(C(=O)O)cnn1-c1cccc(-c2cccc(C)c2OCc2cc(C)c3c(c2)CCN(C2CCOCC2)C3)n1 [Compound 169]
31	110 (≈ 193 µM)	88 (≈ 155 µM)	97 (≈ 171 µM)	COc1c(C(=O)O)cnn1-c1cccc(-c2cccc(C)c2OCc2ccc3c(c2)CCCN(C2CCOCC2)C3)n1 [Compound 100]
<24	110 (≈ 193 µM)	89 (≈ 157 µM)	93 (≈ 164 µM)	CC(C)Oc1c(C(=O)O)cnn1-c1cccc(-c2ccccc2OCc2ccc3c(c2)CCN(C2CCOCC2)C3)n1 [Compound 144]
<24	130 (≈ 223 µM)	98 (≈ 168 µM)	97 (≈ 166 µM)	CCOc1c(C(=O)O)cnn1-c1cccc(-c2cccc(C)c2OCc2cc(C)c3c(c2)CCN(C2CCCOC2)C3)n1 (stereo not shown) [Compound 173]
<24	60 (≈ 97.9 µM)	66 (≈ 108 µM)	73 (≈ 119 µM)	CCOc1c(C(=O)O)cnn1-c1cccc(-c2cccc(C)c2OCc2ccc3c(c2C)CCN(C2COC(C)(C)OC2)C3)n1 [Compound 155]
<24	90 (≈ 158 µM)	73 (≈ 128 µM)	74 (≈ 130 µM)	CCOc1c(C(=O)O)cnn1-c1cccc(-c2cccc(C)c2OCc2ccc3c(c2)CCN(CC2CCCO2)C3)n1 (stereo not shown) [Compound 101, 5-ethoxy-1-(6-{3-methyl-2-[2-(tetrahydro-furan-2-ylmethyl)-1,2,3,4-tetrahydro-isoquinolin-6-ylmethoxy]-phenyl}-pyridin-2-yl)-1H-pyrazole-4-carboxylic acid]
<24	87 (≈ 146 µM)	67 (≈ 112 µM)	65 (≈ 109 µM)	CCOc1c(C(=O)O)cnn1-c1cccc(-c2cccc(C)c2OCc2ccc3c(c2C)CCN(C[C@H]2CCCOC2)C3)n1 [Compound 153]
<24	110 (≈ 180 µM)	78 (≈ 127 µM)	81 (≈ 132 µM)	COCCOc1c(C(=O)O)cnn1-c1cccc(-c2cccc(C)c2OCc2ccc3c(c2C)CCN(C2CCCOC2)C3)n1 (stereo not shown) [Compound 149]
26	110 (≈ 184 µM)	93 (≈ 156 µM)	97 (≈ 163 µM)	Cc1cccc(-c2cccc(-n3ncc(C(=O)O)c3OC(C)C)n2)c1OCc1ccc2c(c1C)CCN(C1CCOCC1)C2 [Compound 104]

Source: patent US8906904B2, “Alkoxy pyrazoles as soluble guanylate cyclase activators” (Boehringer Ingelheim International GmbH, priority 2012, dated 2014)
